Test results: paper PMC7692735, “Bromo-Cyclobutenaminones as New Covalent UDP-N-Acetylglucosamine Enolpyruvyl Transferase (MurA) Inhibitors” (Pharmaceuticals, 2020)
Converted amounts (≈) assume the structure as drawn. “Also recorded” adds a separate entry of the source. Like-named read-outs stand apart in the source and are kept apart here.

Columns and labels:
MurA (E. coli) [1] = molecular target: T1, MurA (E. coli) (Escherichia coli, UniProt P0A749); assay: MurA assay, colorimetric malachite green method; format: biochemical; settings: for MurA inhibition in screening: 500 μM screening concentration
T1 construct: made in house; host or cells: E. coli
Procedure: MurAEC protein was recombinant, expressed in E. coli. The inhibition of MurA was monitored with the colorimetric malachite green method in which orthophosphate generated during the reaction is measured. MurA enzyme (E. coli) was pre-incubated with the substrate UNAG and compound for 30 min at 37 °C. The reaction was started by the addition of the second substrate PEP, resulting in a mixture with a final volume of 50 μL. The mixtures contained: 50 mM Hepes, pH 7.8, 0.005% Triton X-114, 200 μM UNAG, 100 μM PEP, purified MurA (diluted in 50 mM Hepes, pH 7.8) and 500 μM of each tested compound dissolved in DMSO. All compounds were soluble in the assay mixtures containing 5% DMSO (v/v). After incubation for 15 min at 37 °C, the enzyme reaction was terminated by adding Biomol® reagent (100μL) and the absorbance was measured at 650 nm after 5 min. All of the experiments were run in duplicate. Remaining activities (RAs) were calculated with respect to similar assays without the tested compounds and with 5% DMSO. The IC50 values, the concentration of the compound at which the remaining activity was 50%, were determined by measuring the remaining activities at seven different compound concentrations. The data are expressed as means of duplicate determinations, and the standard deviations were within 10% of the given values. A time-dependent inhibition assay was also performed. The IC50 values were determined at 0, 15 and 30 min of pre-incubation.

MurA Cys115 = assay: MS/MS of tryptic digested MurA, covalent labelling; format: binding, E. coli; settings: tryptic peptide amino acids 104–120
Procedure: The tryptic digestion method was adapted from our former publication.
Briefly, 50 μL of MurA (42 μM) and 10 μL 0.2% (w/v) RapiGest SF (Waters Corp., Milford, MA, USA) solution buffered with 50 mM ammonium bicarbonate (NH4HCO3) were mixed (pH = 7.8). 4.5 μL of 45 mM DTT (~200 nmol) in 100 mM NH4HCO3 was added and the mixture kept at 37.5 °C for 30 min. After cooling the sample to room temperature, 7.5 μL of 100 mM iodoacetamide (750 nmol) in 100 mM NH4HCO3 was added and the mixture placed in the dark at room temperature for 30 min. The reduced and alkylated protein was then digested by 10 μL (1 mg mL^−1) trypsin (the enzyme-to-protein ratio was 1:10) (Sigma, St Louis, MO, USA). The sample was incubated at 37 °C overnight. To degrade the surfactant, 7 μL of HCOOH (500 mM) solution was added to the digested […] sample to obtain the final 40 mM (pH ≈ 2) solution which was incubated at 37 °C for 45 min. For LC-MS analysis, the acid-treated sample was centrifuged for 5 min at 13,000 rpm.
A QTRAP 6500 triple quadruple—linear ion trap mass spectrometer, equipped with a Turbo V source in electrospray mode (AB Sciex Pte. Ltd., Framingham, MA, USA) and an Agilent 1100 Binary Pump HPLC system (Agilent Technologies, Waldbronn, Germany) equipped with an autosampler was used for LC-MS/MS analysis. […]

MurA (E. coli) [2] = molecular target: T1, MurA (E. coli); settings: known MurA inhibitors, Figure 1; cited from earlier work
S. aureus (ATCC 29213) = assay: Antimicrobial testing (MIC), broth microdilution; format: cell-based; settings: Staphylococcus aureus, ATCC29213, positive control
Procedure: (§1) Antimicrobial testing was carried out by the broth microdilution method in 96-well plate format following the CLSI guidelines and European Committee for Antimicrobial Susceptibility Testing recommendations. Bacterial suspension of specific bacterial strain, equivalent to 0.5 McFarland turbidity standard, was diluted with cation-adjusted Mueller Hinton broth to obtain a final inoculum of 10^5 CFU/mL. Compounds dissolved in DMSO and inoculum were mixed together and incubated for 20–24 h at 37 °C. After incubation the minimal inhibitory concentration (MIC) values were determined by visual inspection as the lowest dilution of compounds showing no turbidity. The MICs were determined against S. aureus (ATCC 29213) and E. coli (ATCC 25922) bacterial strains. Tetracycline was used as a positive control on every assay plate, showing a MIC of 0.5 µg/mL and 1 µg/mL for S. aureus and E. coli, respectively.

E. coli (ATCC 25922) = assay: Antimicrobial testing (MIC), broth microdilution; format: cell-based; settings: Escherichia coli, ATCC25922, positive control
Procedure: as §1

MurA (E. cloacae) = test system: MurA (E. cloacae); design: method as in PMID 24755374, PMID 25521652, PMID 11600375, PMID 30461051; settings: known MurA inhibitors, Figure 1; cited from earlier work
[3] = GSH reactivity assay (HPLC-MS); format: physicochemical; settings: 250 μM fragment, 5 mM glutathione, PBS pH 7.4, 5% MeCN
Procedure: (§2) The assay was adapted from our former publication.
(§3) For the glutathione assay, 500 μM solution of the fragment (PBS buffer pH 7.4, 10% MeCN, 250 μL) with 200 μM solution of indoprofen (Merck KGaA, Darmstadt, Germany) as internal standard was added to 10 mM glutathione (Merck KGaA, Darmstadt, Germany) solution (dissolved in PBS buffer, 250 μL) in a 1:1 ratio. The final concentration was 250 μM fragment, 100 μM indoprofen, 5 mM glutathione and 5% MeCN (500 μL). The final mixture was analyzed by HPLC-MS (Shimadzu LCMS-2020) after 0, 1, 2, 4, 20, 25, 48, 72 h time intervals. […] The AUC (area under the curve) values were determined via integration of HPLC spectra then corrected using the internal standard. […] The data are expressed as means of duplicate determinations, and the standard deviations were within 10% of the given values. […]
(§4) The reaction half-life for pseudo-first-order reactions is t1/2 = ln2/k, where k is the reaction rate. […] In our case, the corrected kdeg and keff (regarding blank and GSH-containing samples, respectively) can be calculated by linear regression of the data points of the kinetic measurements. The corrected kGSH is calculated by keff − kdeg, and finally, the half-life time is determined using the equation t1/2(GSH) = ln2/kGSH.

[4] = Aqueous stability assay in PBS buffer; format: physicochemical; settings: PBS buffer pH 7.4, room temperature; read-out: t1/2 aqueous degradation (converted)
Procedure: as §2, §3, §4

[5] = fragment 500 μM, 30 min preincubation at 37 °C, read-out: RA (remaining activity) at 500 µM
[6] = 30 min preincubation, read-out: IC50 (converted)
[7] = fragment 500 μM, 30 min preincubation at 37 °C

T1 sequence (P0A749 whole entry): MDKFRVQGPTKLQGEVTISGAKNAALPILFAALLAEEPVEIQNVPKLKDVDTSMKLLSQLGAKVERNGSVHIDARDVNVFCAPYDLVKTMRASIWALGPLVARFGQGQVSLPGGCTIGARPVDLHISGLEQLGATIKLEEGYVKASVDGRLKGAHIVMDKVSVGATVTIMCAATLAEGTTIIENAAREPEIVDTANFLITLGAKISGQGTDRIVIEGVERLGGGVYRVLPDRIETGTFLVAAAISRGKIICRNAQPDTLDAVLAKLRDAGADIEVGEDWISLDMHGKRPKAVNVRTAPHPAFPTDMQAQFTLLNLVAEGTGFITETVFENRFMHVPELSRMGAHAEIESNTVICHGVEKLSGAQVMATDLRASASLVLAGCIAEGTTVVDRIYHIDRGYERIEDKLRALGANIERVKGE

Work on `COc1ccc(CN(C)C2=CC(=O)C2(C)C)cc1` [14d, 3-((4-Methoxybenzyl)(methyl)amino)-4,4-dimethylcyclobut-2-en-1-one] yielded a remaining activity at 500 µM (MurA (E. coli) [1]; [5]) of 99 ± 3%.
Molecule `CN(C(=O)c1ccccc1)C1=CC(=O)C1(C)C` [16a, N-(4,4-dimethyl-3-oxocyclobut-1-en-1-yl)-N-methylbenzamide] has a remaining activity at 500 µM (MurA (E. coli) [1]; [5]) of 99 ± 8%.
`CN(C)C1=CC(=O)C1(C)C` [14b, 3-(Dimethylamino)-4,4-dimethylcyclobut-2-en-1-one] showed a remaining activity at 500 µM (MurA (E. coli) [1]; [5]) of 99 ± 1%.
Molecule `CC(=O)N(C)C1=C(Br)C(=O)C1(C)C` [17b, N-(2-bromo-4,4-dimethyl-3-oxocyclobut-1-en-1-yl)-N-methylacetamide] has an IC50 (MurA (E. coli) [1]; 0 min preincubation, read-out: IC50 (converted)) of 356 ± 29 µM, an IC50 (MurA (E. coli) [1]; 15 min preincubation, read-out: IC50 (converted)) of 149 ± 15 µM and an IC50 (MurA (E. coli) [1]; [6]) of 128 µM. For the same molecule, the remaining activity at 500 µM (MurA (E. coli) [1]; [5]) was 8 ± 2% and the “Covalent labelling site on MurA by MS/MS” value (MurA Cys115) was “labeling on Cys115”.
In the case of “2-Bromo-4,4-dimethyl-3-(methylamino)cyclobut-2-en-1-one [15b]”, the “RA (remaining activity) at 500 µM” value (MurA (E. coli) [1]; [7]) is reported as 91 ± 5%.
Molecule `CNC1=C(Br)C(=O)C1(C)C` [15a, 2-Bromo-4,4-dimethyl-3-(methylamino)cyclobut-2-en-1-one] has a remaining activity at 500 µM (MurA (E. coli) [1]; [5]) of 100 ± 7%.
In the case of `CCOC1=CC(=O)C1(C)C` [compound 12, 3-Ethoxy-4,4-dimethylcyclobut-2-en-1-one], the “MurA inhibition in screening” value (MurA (E. coli) [1]) is reported as “to no avail” and the remaining activity at 500 µM (MurA (E. coli) [1]; [5]) is reported as 98 ± 2%.
`CN(CC(F)(F)F)C1=CC(=O)C1(C)C` [14e, 4,4-Dimethyl-3-(methyl(2,2,2-trifluoroethyl)amino)cyclobut-2-en-1-one] gave a remaining activity at 500 µM (MurA (E. coli) [1]; [5]) of 98 ± 7%.
For `C=C1C(=O)OCC1O` (racemic) [(±)-tulipaline B], the IC50 (MurA (E. coli) [2]) is given as 2.2 µM.
In the case of `O=C1O/C(=C\c2cccc3ccccc23)C(O)=C1c1ccc(C(F)(F)F)cc1` [compound 5], the IC50 (MurA (E. coli) [2]) is listed as 39 µM.
`CN(C)[C@@H]1C(O)=C(C(N)=O)C(=O)[C@@]2(O)C(O)=C3C(=O)c4c(O)cccc4[C@@](C)(O)[C@H]3C[C@@H]12` [Tetracycline] showed an MIC (S. aureus (ATCC 29213)) of 0.5 µg/mL (≈ 1.13 µM) and an MIC (E. coli (ATCC 25922)) of 1 µg/mL (≈ 2.25 µM).
In the case of `C=C(C(=O)O)[C@@H]1[C@@H](CCCCCCCC)OC(=O)[C@@H]1O` [compound 8], the IC50 (MurA (E. coli) [2]) is given as 2.8 µM.
In the case of `C=Cc1cncs1` [compound 9], the IC50 (MurA (E. coli) [2]) is given as 66 µM.
`CNC1=CC(=O)C1(C)C` [14a, 3-(Methylamino)-4,4-dimethylcyclobut-2-en-1-one] showed a remaining activity at 500 µM (MurA (E. coli) [1]; [5]) of 93 ± 4%.
For `CC1=C(O)C(=O)[C@@H]2O[C@@H]2C1=O` [terreic acid], the IC50 (MurA (E. cloacae)) is listed as 14 µM.
`CCN(CC)C1=C(Br)C(=O)C1(C)C` [15c, 2-Bromo-3-(diethylamino)-4,4-dimethylcyclobut-2-en-1-one] gave a remaining activity at 500 µM (MurA (E. coli) [1]; [5]) of 88 ± 6%.
For `CN(CC(F)(F)F)C1=C(Br)C(=O)C1(C)C` [15e, 2-Bromo-4,4-dimethyl-3-(methyl(2,2,2-trifluoroethyl)amino)cyclobut-2-en-1-one], the “MurA inhibition in screening” value (MurA (E. coli) [1]) was “no effect” and the remaining activity at 500 µM (MurA (E. coli) [1]; [5]) was 84 ± 4%.
For `Ic1cncnc1` [compound 10], the IC50 (MurA (E. coli) [2]) is given as 3.8 µM.
For `CN(C(=O)c1ccccc1)C1=C(Br)C(=O)C1(C)C` [17a, N-(2-bromo-4,4-dimethyl-3-oxocyclobut-1-en-1-yl)-N-methylbenzamide], the “kGSH rate constant of conjugation with GSH” value [3] was 0.0128 M/min, the half-life at 250 μM [4] was 36.5 h and the IC50 (MurA (E. coli) [1]; IC50, 30 min preincubation) was 138 µM. For the same molecule, the remaining activity at 500 µM (MurA (E. coli) [1]; [5]) was 12 ± 3% and the “Covalent labelling site on MurA by MS/MS” value (MurA Cys115) was “labelled on Cys115; also recorded: labeling on Cys115”.
`CCN(CC)C1=CC(=O)C1(C)C` [14c, 3-(Diethylamino)-4,4-dimethylcyclobut-2-en-1-one] gave a remaining activity at 500 µM (MurA (E. coli) [1]; [5]) of 96 ± 2%.
In the case of `COc1ccc(CN(C)C2=C(Br)C(=O)C2(C)C)cc1` [15d, 2-Bromo-3-((4-methoxybenzyl)(methyl)amino)-4,4-dimethylcyclobut-2-en-1-one], the IC50 (MurA (E. coli) [1]; [6]) is reported as 363 µM, the “RA (remaining activity) at 500 µM” value (MurA (E. coli) [1]; [7]) is reported as 13 ± 1% and the remaining activity at 500 µM (MurA (E. coli) [1]; read-out: RA (remaining activity) at 500 µM, fragment 500 μM, 30 min preincubation at 37 °C) is reported as less than 15%.
